The values that follow come from patent US10377731B2, “Compositions and methods for cancer treatment” (Boston Biomedical, Inc., priority 2007, dated 2019).

Assay [1] deals with Paca2 human pancreatic cancer cells. The experiment in a line: Colony formation, Paca2 cells, single drugs and combinations. Type of assay: cell-based. As to the method:
(§1) Paca2 human pancreatic cancer cells, A549 human lung cancer cells, and HepG2 human liver cancer cells (American Type Culture Collection) were cultured in Dulbecco's modified Eagle's medium containing 10% fetal bovine serum, 100 units/mL penicillin, 100 μg/mL streptomycin, and 2 mM L-glutamine. […] Erlotinib was from American Custom Chemicals (San Diego, Calif.). Gemcitabine was from Eli Lilly (Indianapolis, Ind.) in an aqueous 20 mM stock solution. Sorafenib was Mass.). Unless otherwise noted all compounds were solubilized in DMSO at 10 mM and aliquoted at −20° C. Exponentially growing Paca2 pancreatic cancer cells were seeded at 1,000 cells per well in 6-well plates and allowed to attach for 24 hours. Increasing concentrations of individual drugs and those in combination were then added to the media for another 24 hours. After 24 hours exposure, the drug was removed and fresh media was added for the next 10-14 days, allowing for colony formation. Cells were fixed and stained with GIEMSA (Gibco BRL). […] Results are an average of duplicate experiments. Alternatively, MTT assays were performed 72 hours post-treatment in A549 and HepG2 cells.

The test system of assay [2] is Stat3. Description: Stat3-luciferase (Stat3-Luc) reporter assay, OSM-stimulated HeLa cells. Type of assay: cell-based. To be noted: for pIC50: Homo sapiens, HeLa cells, compound 30 minutes before 25 ng/ml oncostatin M, read 6 hours later, read-out: IC50 in Stat3-Luc assays. As to the method: Luciferase Reporter Assay: HeLa Cells were co-transfected with Stat3-luciferase (Stat3-Luc) reporter vector (Panomics, Fremont, Calif.) and Renilla luciferase (Promega, Madison, Wis.) using Lipofectamine 2000 as described by the manufacturer (Invitrogen). Following transfection, cells were maintained in medium containing 0.5% FBS for 24 hours. Cells were then treated with the indicated compound for 30 minutes prior to the addition of 25 ng/ml oncostatin M (OSM) (R&D Systems, Minneapolis, Minn.) to the medium. 6 hours following OSM addition, cells were harvested and levels of firefly and renilla luciferase were measured using the Dual-Glo Luciferase Assay System as described by the manufacturer (Promega).
Inhibition of Stat3 transcription activity. Compounds were tested for their ability to inhibit Stat3 transcription activation activity in cells using a Stat3-luciferase (Stat3-luc) reporter construct. Cells transfected with Stat3-luc were cultured in reduced serum medium prior to addition of indicated compound for 30 minutes. Cells were then stimulated with 25 ng/ml oncostatin M (OSM) for 6 hours followed by detection of Stat3-luc reporter activity. […] AG490, a known inhibitor of the Jak-Stat pathway, was included as a positive control for Stat3 inhibition.
(In general: Reporter assays use an easily measured gene product as a stand-in for the process of interest.)

Assay [3] deals with Stat3. Description: Stat3 DNA binding assay (EMSA), HeLa nuclear extract. To be noted: HeLa nuclear extract with constitutively activated Stat3. In kind it is biochemical. As to the method:
STAT3 DNA Binding Assay: Electrophoretic mobility shift assay (EMSA) was performed as described by the manufacturer (Li-Cor Biosciences, Lincoln, Nebr.). Briefly, nuclear extracts were made from HeLa cells using the NucBuster Protein Extraction Kit as described by the manufacturer (EMD Biosciences, San Diego, Calif.). 5 μg of nuclear extract was pre-incubated with the indicated dose of indicated compound for 30 minutes prior to a 15-minute incubation with the IR700-labeled consensus Stat3 oligonucleotide. Samples were then electrophoresed on a polyacrylamide gel and directly scanned using the Odyssey infrared imaging system (Li-Cor Biosciences). For the enzyme-linked immunosorbent assay (ELISA), 5 μg of nuclear extract was preincubated with indicated concentration of indicated compound for 30 minutes prior to the addition of biotinylated oligo (5′-Biotin-[…]-3′ SEQ ID NO. 1). Stat3-DNA complexes were then captured on streptavidin coated 96 well plates (Pierce, Rockford, Ill.). Bound complexes were then incubated with Stat3 polyclonal antibody (Santa Cruz Biotechnology, Santa Cruz, Calif.) followed by anti-rabbit HRP conjugated secondary antibody (GE Healthcare, Pittsburgh, Pa.). Bound antibody was then visualized by addition of TMB substrate (Pierce) and absorbance measured at 450 nm.
Inhibition of Stat3 DNA-binding activity. Nuclear extracts from HeLa cells, which contain constitutively activated Stat3 as detected by phosphorylation at the tyrosine 705 residue, were used to perform Stat3 EMSAs to monitor Stat3 DNA binding activity. Nuclear extracts were incubated with indicated compound prior to incubation with IR700-labeled Stat3 consensus oligonucleotide. Binding of Stat3 to the oligonucleotide was monitored by gel electrophoresis and detection using a LiCor Odyssey infrared scanner.
In general terms: A gel shift assay detects complexes by their altered migration in electrophoresis.

The next assay relates to CD44high CSCs (FaDu). Description: Sphere assay (CSC spherogenesis). In kind it is cell-based, human. The settings on record: applied at approximately ten times their IC50 concentrations for cell death. As to the method: CD44^high cells were isolated by FACS according to the methods described in Ponti et al, with slight modification. Briefly, after trypsinization and recovery of cells for 30 minutes at 37° C. in growth media, cells were pelleted at 400×g and were resuspended in PBS with 2% FBS and 1 mM EDTA at 1×10^6 cells/mL. Cells were then incubated on ice with a 1:100 dilution of CD44-FITC (BD Biosicences, San Diego, Calif.) for 15 minutes. Alternatively, CD24-PE (BD Bioscences, San Diego, Calif.) (1:100) was utilized for negative selection. After washing three times, cells were resuspended at 2×10^6/mL and passed through a […] mesh before sorting
Sphere assay: A reliable method of measuring the self-renewal capacity of cell population if the ability to be cultured as spheres in the absence of serum or attachment. CD44^high FaDu or Hoechst side population cancer stem cells were cultured in ultra low attachment plates in cancer stem cell media (DMEM/F12, B27 Neurobasal supplement, 20 ng/ml EGF, 10 ng/ml FGF, 4 μg/ml insulin, and 0.4% BSA) to allow spheres formation. Typically, sphere formation was evaluated by microscopy after 10-14 days in culture and spheres with >50 cells were scored.
Identification of compounds that inhibit CSC spherogenesis in vitro. One of the hallmarks of cancer stem cells is their ability to self-renew. A reliable method of measuring the self-renewal capacity of cell populations is the ability to be cultured as spheres in the absence of serum or attachment. To compare the ability of compound 401 to other targeted and chemotherapeutic agents, FACS-isolated CD44^high CSCs were grown as spheres for 72 hours before being challenged with a panel of therapeutic agents. […] Tarceva, Sutent, and Gleevec were added at approximately three times their reported therapeutic concentrations.

Assay [4] has as its system HepG2 human liver cancer cells. The experiment in a line: 72 hour MTT, HepG2 cells, single drugs and combinations. In kind it is cell-based. The procedure: (§2) Cell Viability Determination: For 3-(4,5 dimethylthiazol-2-yl)-2,5-diphenyltetrazolium (MTT) (Sigma-Aldrich, St. Louis, Mo.) analysis, cells were plated in 96 well plates at 10,000 cells per well. 24 hours after plating, compound was added to cells at indicated doses. […] following compound addition, MTT was added to each well (0.5 mg/ml, final concentration) and plates were incubated for an additional 2 hours at 37° C. Medium was then aspirated and the formazan product was solubilized in 100 μl of isopropyl alcohol. The absorbance of each well was measured at 570 nm using a microplate reader.
as §1

Assay [5] has as its system A549 human lung cancer cells. The experiment in a line: 72 hour MTT, A549 cells, single drugs and combinations. Type of assay: cell-based. To be noted: for inhibition at 2.5 µM: read-out: X (% Inhibition). The procedure:
as §2, §1

[6] abbreviates: 72 hour MTT A549 cells, X alone 2.5 μM.

pIC50: −log10 of the molar value. Like-named read-outs stand apart in the source and are kept apart here.

Consider `N.N.O=C([O-])C1(C(=O)[O-])CCC1.[Pt+2]` [Carboplatin], for which the “X (% Inhibition)” value in assay [1] (X alone 16 μM) is 43%. For `CC(O)c1cc2c(o1)C(=O)c1ccccc1C2=O` (stereo not shown) [Compound 301, 2-(1-hydroxyethyl)-naphtho[2,3-b]furan-4,9-dione], the negative-log IC50 (pIC50) (in general, −log10 of the IC50, conventionally taken in molar units) with Stat3 [2] is around 5.70. In the case of `CC(=O)c1cc2c(o1)C(=O)c1cc(Cl)ccc1C2=O` [Compound 416, 2-Acetyl-7-Chloro-naphtho[2,3-b]furan-4,9-dione], in the assay on Stat3 [2], the negative-log IC50 (pIC50) is around 6.12. Also, in the assay with Stat3 [3], the “Inhibition of Stat3 DNA-binding activity (in words)” value is given as “can inhibit”.

In the case of `CC(=O)c1cc2c(o1)C(=O)c1cc(F)ccc1C2=O` [Compound 418, 2-Acetyl-7-Fluoro-naphtho[2,3-b]furan-4,9-dione], the negative logarithm of the IC50 (pIC50) with Stat3 [2] is around 6.12. Also, the “Inhibition of Stat3 DNA-binding activity (in words)” value in the assay with Stat3 [3] is “can inhibit”. On to `O=C(c1ccccc1)c1cc2cc3ccccc3cc2s1` [Compound 1001, reference compound], for which, in the assay with Stat3 [2] (at a much higher concentration (FIG. 4, right panel)), the “Inhibition of OSM-stimulated Stat3 reporter activity (in words)” value was “did not inhibit”. Consider `CC(=O)O[C@@]12CO[C@@H]1C[C@H](O)[C@@]1(C)C(=O)[C@H](O)C3=C(C)[C@@H](OC(=O)[C@H](O)[C@@H](NC(=O)OC(C)(C)C)c4ccccc4)C[C@@](O)([C@@H](OC(=O)c4ccccc4)[C@H]21)C3(C)C` [Docetaxel, reference compound], for which, in assay [1] (Homo sapiens, PaCa-2, X alone 0.33 nM), the inhibition (usually the share of the control response that was lost under treatment) at 0.00033 µM was 48%. Moreover, the “Effect on CSC sphere proliferation” value with CD44high CSCs (FaDu) is recorded as “resistant”. Consider `COc1cccc2c1C(=O)c1c(O)c3c(c(O)c1C2=O)C[C@@](O)(C(=O)CO)C[C@@H]3O[C@H]1C[C@H](N)[C@H](O)[C@H](C)O1` [Doxorubicin], for which the inhibition at 0.016 µM in assay [1] (Homo sapiens, PaCa-2, X alone 16 nM) was 89%. Moreover, the “Effect on CSC sphere proliferation” value with CD44high CSCs (FaDu) was “resistant”. The inhibition at 0.0125 µM turned out to be 23% in assay [4] (X alone 12.5 nM) and 29% in assay [5] (72 hour MTT A549 cells, X alone 12.5 nM). As to `C#Cc1cccc(Nc2ncnc3cc(OCCOC)c(OCCOC)cc23)c1` [Erlotinib], the inhibition at 16 µM in assay [1] (Homo sapiens, PaCa-2, X alone 16 μM) came out at 26%. The inhibition at 2.5 µM in assay [5] (A549, 72 h) is 43%. On to `COc1cc([C@@H]2c3cc4c(cc3[C@@H](O[C@@H]3O[C@@H]5CO[C@@H](C)O[C@H]5[C@H](O)[C@H]3O)[C@H]3COC(=O)[C@H]23)OCO4)cc(OC)c1O` [Etoposide], for which, in assay [1] (Homo sapiens, PaCa-2, X alone 660 nM), the inhibition at 0.66 µM came to 58%. Take `Nc1ccn([C@@H]2O[C@H](CO)[C@@H](O)C2(F)F)c(=O)n1` [Gemcitabine]: in assay [1] (Homo sapiens, PaCa-2, X alone 33 nM), the inhibition at 0.033 µM came to 36%. With `CS(=O)(=O)CCNCc1ccc(-c2ccc3ncnc(Nc4ccc(OCc5cccc(F)c5)c(Cl)c4)c3c2)o1` [Lapatinib], in assay [1] (Homo sapiens, PaCa-2, X alone 6.75 μM), the inhibition at 6.75 µM came to 27%. In addition, in assay [5] (setting [6]), the inhibition at 2.5 µM worked out at 66%. Consider `CNC(=O)c1cc(Oc2ccc(NC(=O)Nc3ccc(Cl)c(C(F)(F)F)c3)cc2)ccn1` [Sorafenib], for which the inhibition at 2 µM in assay [1] (Homo sapiens, PaCa-2, X alone 2 μM) was 66%. Besides, the inhibition at 0.625 µM in assay [4] (X alone 625 nM) came out at 34%. Moreover, the inhibition at 2.5 µM in assay [4] (X alone 2.5 μM) is 51%; in assay [5] (setting [6]), 40%.

As to `CCN(CC)CCNC(=O)c1c(C)[nH]c(/C=C2\C(=O)Nc3ccc(F)cc32)c1C` [Sunitinib], the inhibition at 12 µM in assay [1] (Homo sapiens, PaCa-2, X alone 12 μM) was found to be 52%. For the same molecule, the inhibition at 2.5 µM in assay [5] (setting [6]) was 75%.
